Where “and” joins values, the source holds several entries; their conditions need not be identical. Equal entries are not always repeated. Where two headings read alike, the source gives them in different places. Blank lines part the entries; values can stand above or below the compound they belong to.
What was measured:
[1] = biological target: T1, human cytochrome P450 17A1 (Homo sapiens, UniProt P05093); conditions: ref [10]; read-out: CYP17A1 Kd; cited from earlier work
T1 construct: made in house
T1 sequence (P05093 1-508): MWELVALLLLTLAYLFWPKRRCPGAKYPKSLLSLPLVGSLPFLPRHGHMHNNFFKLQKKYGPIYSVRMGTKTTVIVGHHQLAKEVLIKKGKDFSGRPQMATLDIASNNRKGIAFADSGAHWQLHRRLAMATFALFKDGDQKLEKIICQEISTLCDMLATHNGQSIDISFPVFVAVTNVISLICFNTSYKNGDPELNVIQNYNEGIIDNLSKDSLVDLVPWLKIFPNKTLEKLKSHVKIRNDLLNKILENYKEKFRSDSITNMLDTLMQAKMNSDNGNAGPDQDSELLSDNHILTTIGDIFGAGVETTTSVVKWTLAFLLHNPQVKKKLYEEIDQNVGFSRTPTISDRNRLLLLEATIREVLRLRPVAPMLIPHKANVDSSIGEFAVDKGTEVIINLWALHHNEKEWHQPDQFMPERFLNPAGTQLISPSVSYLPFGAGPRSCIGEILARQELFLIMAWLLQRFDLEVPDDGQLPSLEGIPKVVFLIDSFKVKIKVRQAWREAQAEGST

human CYP17A1 [2] = biological target: T2, human CYP17A1 (Homo sapiens, UniProt P05093); design: method as in PMID 28373265; conditions: ref [11]; cited from earlier work
T2 construct: made in house
T2 sequence (P05093 24-508 limits assumed): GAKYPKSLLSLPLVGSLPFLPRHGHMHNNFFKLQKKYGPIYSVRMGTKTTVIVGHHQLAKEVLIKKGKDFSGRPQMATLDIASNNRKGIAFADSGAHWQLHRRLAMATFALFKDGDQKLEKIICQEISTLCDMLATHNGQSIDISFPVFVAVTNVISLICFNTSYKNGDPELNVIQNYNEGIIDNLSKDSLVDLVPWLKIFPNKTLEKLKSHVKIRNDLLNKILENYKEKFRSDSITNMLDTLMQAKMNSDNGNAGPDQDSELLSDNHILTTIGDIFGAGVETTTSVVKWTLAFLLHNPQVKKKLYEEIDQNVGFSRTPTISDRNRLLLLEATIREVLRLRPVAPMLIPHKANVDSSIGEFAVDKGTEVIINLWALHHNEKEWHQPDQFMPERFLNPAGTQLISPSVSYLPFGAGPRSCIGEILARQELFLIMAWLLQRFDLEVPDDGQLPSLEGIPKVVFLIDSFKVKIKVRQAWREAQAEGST

[3] = biological target: T1, human cytochrome P450 17A1; assay: Spectral binding assay (CYP17A1 ligand binding); conditions: purified recombinant human CYP17A1, spectral titration
Source text: The target compounds were initially tested for binding mode and affinity for CYP17A1 using a spectral binding assay. This assay can distinguish the mode of interaction, with a blue shift of the Soret absorbance occurring when ligand displaces water from the heme iron to generate a five-coordinate iron without direct coordination to the heme iron (type I, similar to most substrates) or a red shift of the Soret peak when the ligand nitrogen replaces the water to directly interact with the six-coordinate iron (type II, similar to many inhibitors). […] This 3-pyridyl fragment is also found in abiraterone.
Initial ligand binding was evaluated by measuring absorbance changes in CYP17A1 upon addition of ligands. Purified recombinant human cytochrome P450 17A1 enzyme (1 µM) in buffer (25 mM potassium phosphate, pH 7.4, 200 mM NaCl, 20% glycerol) was titrated with ligands. Ligands were dissolved in DMSO and added to three concentrations (500, 1000, and 2000 nM). The spectral intensity difference (ΔA) was measured as difference between […]. The Amin was typically at ~410 nm and Amax at ~440 nm for the type II changes observed for these ligands.
S2. Binding spectra and CYP IC50 curves
Difference spectrum of cytochrome P450 17A1 with vs. without compound 1a (2 µM).
All compounds are type II and display the same shift as the example above.
(§1) (1 picture or pasted object on this page, not shown here)

PC3 cells = assay: Prostate cancer cell line proliferation screening (GR), PC3; assay type: cell-based, human; conditions: 10 µM, 48 h
Procedure: Next, we tested the effect of compounds 1a–1e on prostate cancer derived cell lines. The anti-proliferative activity was determined in vitro by adding 10 µM compound to each of three prostate cancer cell lines (LNCaP, DU145, and PC3). As an additional comparison, immortalized non-cancerous fibroblasts (BJ hTERT) were used. These cancer cell lines are considered the classic standard of PCa cell culture. Since these cell lines grew at very different rates, inhibition of growth rate (GR) was used as a metric. All compounds except 1e were non-toxic to non-cancerous cells. Compounds 1a and 1c were both cytotoxic in the PC3 cell line (Figure 3). […] DU145 cells were weakly affected by only compound 1e with growth rate inhibition more than 50% (GR < 0.5). […] We observed substantial susceptibility of PC3 cells in comparison to DU145 (see Supplementary Materials S3 for GR50 in PC3 cells). These two cell lines are similar in many respects. […] However, they differ in their origins, PC3 being derived from a lumbar vertebral metastatic prostate tumour and DU145 from a brain metastatic prostate tumour. […] By observing a uniform response of all cell lines used in the present study to 5-fluorouracil (5-FU), we were able to rule out any general cell dependent variability in chemosensitivity towards anti-metabolite treatment. Still, chemoresistance in PC3 and DU145 may be mediated by other mechanisms. While AR also functions as a tumour suppressor inhibiting cell proliferation, it is possible in AR deprived cells to observe growth inhibition when cells retain necessary coregulators. […]
(§2) Cells were grown to approximately 80% confluence in 150 mm culture dishes and harvested by 0.25% Trypsin/EDTA (Gibco) treatment. Released cells were counted and seeded in 384 well plates (Falcon, ref. 353962) in 30 µl media with a cell count of 1500 (BJ cells, PC-3) or and 3500 (LNCaP (Lund)) cells per well. […] The cells incubated for 24 h, after which cell counts in wells of one 384-well plate were determined as described below (time zero). […]

human CYP17A1 [4] = biological target: T2, human CYP17A1; assay: Cytochrome P450 17A1 progesterone 17α-hydroxylation inhibition assay; assay type: biochemical; conditions: recombinant purified CYP17A1
Procedure: Regardless of their binding affinity, all compounds were tested for their ability to inhibit progesterone 17α-hydroxylation by recombinant purified CYP17A1 (Supplementary Materials S2).
Purified recombinant human CYP17A1 (20 pmol) and human full-length cytochrome P450 reductase (80 pmol) were used to convert progesterone (purchased from Acros Organics, Fair Lawn, NJ, USA) (6 µM) to 17α-hydroxyprogesterone. Test inhibitors were dissolved in DMSO and initially tested in concentrations ranging from 1.3 to 41 µM. In subsequent assays the range of inhibitor concentrations was optimized to best define the IC50 of individual compounds. Reactions were run and the 17α -hydroxyprogesterone product measured by LC-MS as previously published.
IC50 curves for compounds inhibiting CYP17A1 progesterone 17-hydroxylation (black circles),
CYP21A2 progesterone 21-hydroxylation (red diamonds), CYP3A4 nifedipine metabolism
(green squares), and CYP2D6 quinidine metabolism (blue triangles).
as §1

CYP2D6 = biological target: T3, CYP2D6 (Homo sapiens, UniProt P10635); assay: CYP2D6 dextromethorphan metabolism inhibition assay; assay type: biochemical
T3 construct: made in house
Source text: (§3) In human drug metabolism, CYP3A4 and CYP2D6 are dominant enzymes and undesired inhibition could potentially alter the pharmacokinetics and reduce the clearance of co-administered drugs. CYP3A4 is particularly important in this respect, with a large and flexible active site able to accommodate many different molecular scaffolds including steroids. […] The most similar steroidogenic human enzyme to CYP17A1 is CYP21A2, which also uses progesterone as a substrate, in this case to form 21-hydroxyprogesterone. Undesired inhibition of this enzyme could adversely impact the biosynthesis of the corticosteroids cortisol and aldosterone which control stress/immune responses and blood pressure, respectively. Abiraterone itself has this liability and is thus co-administered with the synthetic corticosteroid prednisone. […] However, at the same time it might be possible to achieve similar results by altering the nitrogen atom position in the pyridine fragment in compound 1e. Further optimization of 1c is required to eliminate off-target effects on the steroidogenic human CYP21A2 enzyme to prevent disruption of glucocorticoid and mineralocorticoid biosynthesis in vivo. This might be achieved by adding substituents compatible with the CYP17A1 active site topography forming interactions with the bordering Arg239 and/or Asp298 residues, but incompatible with the more spatially constrained CYP21A2 active site, as has been accomplished for abiraterone.
(§4) Selected inhibitors were tested for off-target inhibition of purified recombinant human CYP3A4 nifedipine metabolism and CYP2D6 dextromethorphan metabolism as described with minor modifications. CYP3A4 nifedipine (purchased from Sigma-Aldrich, St. Louis, MO, USA) activity assays were carried out with 200 µM nifedipine for 30 min. The CYP2D6 dextrometorphan (purchased from Sigma-Aldrich, St. Louis, MO, USA) assays were carried out with 100 µM DXM. Inhibition of steroidogenic cytochrome P450 21A2 progesterone 21-hydroxylation was evaluated as reported.
(§5) IC50 curves for compounds inhibiting CYP17A1 progesterone 17-hydroxylation (black circles), […]

human CYP3A4 = biological target: T4, human CYP3A4 (Homo sapiens, UniProt P08684); assay: CYP3A4 nifedipine metabolism inhibition assay; assay type: biochemical; conditions: concentrations up to 10 µM
T4 construct: made in house
Source text: as §3, with “Further optimization of 1c is required to eliminate off-target effects on the steroidogenic human CYP21A2 enzyme to prevent disruption of glucocorticoid and mineralocorticoid biosynthesis in vivo. This might be achieved by adding substituents compatible with the CYP17A1 active site topography forming interactions with the bordering Arg239 and/or Asp298 residues, but incompatible with the more spatially constrained CYP21A2 active site, as has been accomplished for abiraterone.” left out
Selected inhibitors were tested for off-target inhibition of purified recombinant human CYP3A4 nifedipine metabolism and CYP2D6 dextromethorphan metabolism as described with minor modifications. […] Inhibition of steroidogenic cytochrome P450 21A2 progesterone 21-hydroxylation was evaluated as reported. […]

cytochrome P450 21A2 = biological target: T5, cytochrome P450 21A2 (Homo sapiens, UniProt P08686); assay: CYP21A2 progesterone 21-hydroxylation inhibition assay; assay type: biochemical; conditions: progesterone 21-hydroxylation
T5 construct: made in house
T5 sequence (P08686 1-495): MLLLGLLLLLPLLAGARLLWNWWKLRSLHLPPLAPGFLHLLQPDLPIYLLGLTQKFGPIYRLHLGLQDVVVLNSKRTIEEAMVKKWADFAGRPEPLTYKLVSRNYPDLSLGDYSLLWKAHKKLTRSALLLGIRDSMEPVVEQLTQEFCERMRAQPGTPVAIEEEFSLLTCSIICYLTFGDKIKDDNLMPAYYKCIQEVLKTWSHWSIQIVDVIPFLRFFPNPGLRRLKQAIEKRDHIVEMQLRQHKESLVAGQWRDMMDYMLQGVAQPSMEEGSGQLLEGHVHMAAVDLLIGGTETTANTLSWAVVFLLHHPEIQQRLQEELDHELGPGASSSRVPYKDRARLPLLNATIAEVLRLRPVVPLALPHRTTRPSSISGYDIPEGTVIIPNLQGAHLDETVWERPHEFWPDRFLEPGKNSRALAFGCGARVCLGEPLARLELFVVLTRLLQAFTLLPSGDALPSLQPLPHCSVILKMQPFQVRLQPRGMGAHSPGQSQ
Source text: as §3, §4, §5

DU145 cells = assay: Prostate cancer cell line proliferation screening (GR), DU145; assay type: cell-based, human
Procedure: Next, we tested the effect of compounds 1a–1e on prostate cancer derived cell lines. The anti-proliferative activity was determined in vitro by adding 10 µM compound to each of three prostate cancer cell lines (LNCaP, DU145, and PC3). As an additional comparison, immortalized non-cancerous fibroblasts (BJ hTERT) were used. These cancer cell lines are considered the classic standard of PCa cell culture. Since these cell lines grew at very different rates, inhibition of growth rate (GR) was used as a metric. All compounds except 1e were non-toxic to non-cancerous cells. Compounds 1a and 1c were both cytotoxic in the PC3 cell line (Figure 3). […] DU145 cells were weakly affected by only compound 1e with growth rate inhibition more than 50% (GR < 0.5). […] We observed substantial susceptibility of PC3 cells in comparison to DU145 (see Supplementary Materials S3 for GR50 in PC3 cells). These two cell lines are similar in many respects. […]
as §2

T3 sequence (P10635 whole entry): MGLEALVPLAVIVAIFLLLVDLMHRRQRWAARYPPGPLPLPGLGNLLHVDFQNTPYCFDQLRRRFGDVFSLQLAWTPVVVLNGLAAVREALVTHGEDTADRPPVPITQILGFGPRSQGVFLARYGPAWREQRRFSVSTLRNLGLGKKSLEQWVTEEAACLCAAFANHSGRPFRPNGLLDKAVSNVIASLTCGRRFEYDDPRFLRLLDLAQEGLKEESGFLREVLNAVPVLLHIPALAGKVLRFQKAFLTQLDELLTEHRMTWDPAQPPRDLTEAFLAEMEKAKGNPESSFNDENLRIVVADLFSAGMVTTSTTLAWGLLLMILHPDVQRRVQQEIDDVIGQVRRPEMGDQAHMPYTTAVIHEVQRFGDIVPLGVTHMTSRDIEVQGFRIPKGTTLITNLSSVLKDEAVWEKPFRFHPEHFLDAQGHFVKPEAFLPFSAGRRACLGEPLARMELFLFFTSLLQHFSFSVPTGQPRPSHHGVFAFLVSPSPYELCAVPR
T4 sequence (P08684 whole entry): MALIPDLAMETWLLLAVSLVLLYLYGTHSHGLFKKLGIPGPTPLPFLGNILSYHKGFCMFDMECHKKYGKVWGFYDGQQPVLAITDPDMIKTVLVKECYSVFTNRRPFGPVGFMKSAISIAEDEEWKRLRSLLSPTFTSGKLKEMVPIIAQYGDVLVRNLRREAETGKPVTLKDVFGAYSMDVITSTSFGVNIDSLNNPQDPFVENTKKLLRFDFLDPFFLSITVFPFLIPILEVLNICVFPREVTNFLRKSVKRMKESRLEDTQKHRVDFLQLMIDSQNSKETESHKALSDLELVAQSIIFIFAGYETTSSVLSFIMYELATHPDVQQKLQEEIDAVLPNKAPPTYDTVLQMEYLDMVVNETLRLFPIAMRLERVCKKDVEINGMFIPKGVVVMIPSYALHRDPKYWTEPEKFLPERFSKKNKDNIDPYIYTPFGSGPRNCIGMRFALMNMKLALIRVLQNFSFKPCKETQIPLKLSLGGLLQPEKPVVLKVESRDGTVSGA

Compound: C[C@]12CC[C@H](O)CC1=CC[C@@H]1[C@@H]2CC[C@]2(C)C(n3cnc4ccccc43)=CC[C@@H]12 [Galeterone]
Kd [1]: < 0.1 µM | IC50 (human CYP17A1 [2]): 0.13 µM

Kd [3]: 0.29 ± 0.055 µM | IC50 (human CYP17A1 [4]): 8 µM and 8.06 µM
Compound: c1ccc2c(c1)ncn2-c1ccc(Nc2ccncc2)cc1 [Compound 1a]
Antiproliferative response in PC3 cells (growth rate inhibition, in words) (PC3 cells): cytotoxic

IC50 (CYP2D6; dextromethorphan metabolism): 2.5 ± 0.6 µM | Fold weaker inhibition of CYP2D6 than of CYP17A1 (CYP2D6; ratio of IC50 values): 4.5 fold | Kd [3]: 0.12 ± 0.034 µM | IC50 (human CYP3A4): > 10 µM | IC50 (cytochrome P450 21A2): 0.19 ± 0.03 µM | IC50 (human CYP17A1 [4]): 0.56 ± 0.1 µM
Compound: c1ccc2c(c1)ccn2-c1ccc(Nc2ccncc2)cc1 [Compound 1e]
Growth rate inhibition value (GR) in DU145 cells (DU145 cells; 10 µM, 48 h): < 0.5 | inhibition at 10 µM (DU145 cells; Homo sapiens, DU-145, 48 h, read-out: Growth rate inhibition in DU145 cells): > 50%

Kd [3]: 0.15 ± 0.037 µM | IC50 (human CYP17A1 [4]): 1.76 ± 0.19 µM
Compound: c1ccc(Nc2ccc(-n3cnc4ccccc43)cc2)cc1 [Compound 1d]
